In patent US20190071416A1, “COMPOUNDS FOR TREATMENT OF CANCER AND EPIGENETICS” (Agency For Science, Technology and Research, priority 2015, published 2019):
pIC50: −log10 of the molar value.

Target: T1, SMYD3 (Homo sapiens, UniProt Q9H7B4)
T1 sequence (Q9H7B4 1-428): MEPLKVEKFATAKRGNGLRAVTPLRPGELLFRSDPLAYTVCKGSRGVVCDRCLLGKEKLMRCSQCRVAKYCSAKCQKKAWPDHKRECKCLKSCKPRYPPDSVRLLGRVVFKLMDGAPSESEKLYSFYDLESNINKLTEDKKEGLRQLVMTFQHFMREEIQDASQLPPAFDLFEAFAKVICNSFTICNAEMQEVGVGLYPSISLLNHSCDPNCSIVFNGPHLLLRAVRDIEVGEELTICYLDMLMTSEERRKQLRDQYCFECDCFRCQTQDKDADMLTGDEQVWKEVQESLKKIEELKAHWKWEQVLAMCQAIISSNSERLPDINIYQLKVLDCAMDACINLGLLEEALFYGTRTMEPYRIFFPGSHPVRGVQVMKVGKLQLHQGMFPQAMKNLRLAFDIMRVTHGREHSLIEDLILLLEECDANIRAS
Experiment: SMYD3 biochemical assay (MTase-Glo, MAP3K2 peptide substrate)
Conditions: Table 3; MTase assay, MAP3K2 peptide substrate; read-out: IC50
Procedure, shortened: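 Luminescent readout of SAH production (coupled SAH→ATP conversion, MTase-Glo) after SMYD3 reacted 30 min at room temperature with 1.0 µM SAM and 10 µM MAP3K2 peptide, both final. Non-linear regression gave IC50 values.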

SMILES | pIC50
CCCOC(=O)N1CCN(C(=O)c2ccc3c(Cl)c4c(nc3c2)C(c2ccccc2)CCC4)CC1 (stereo not drawn) [A119, Propyl 4-(9-chloro-5-phenyl-5,6,7,8-tetrahydroacridine-3-carbonyl)piperazine-1-carboxylate] | 5.72
CCCOC(=O)N1CCN(C(=O)c2ccc3c(Cl)c4c(nc3c2)CC(CCN(C)C)CC4)[C@H](C)C1 (stereo partly drawn) [A120, Propyl (3R)-4-(9-chloro-6-(2-(dimethylamino)ethyl)-5,6,7,8-tetrahydroacridine-3-carbonyl)-3-methylpiperazine-1-carboxylate] | 6.92
CCCOC(=O)N1CCN(C(=O)c2ccc3c(Cl)c4c(nc3c2)CC(CCN2CCCC2)CC4)CC1 (stereo not drawn) [A121, Propyl 4-(9-chloro-6-(2-(pyrrolidin-1-yl)ethyl)-5,6,7,8-tetrahydroacridine-3-carbonyl)piperazine-1-carboxylate] | 6.66
CCCOC(=O)N1CCN(C(=O)c2ccc3c(Cl)c4c(nc3c2)CC(c2ccnc(C)c2)CC4)C[C@H]1C (stereo partly drawn) [A122, Propyl (2R)-4-(9-chloro-6-(2-methylpyridin-4-yl)-5,6,7,8-tetrahydroacridine-3-carbonyl)-2-methylpiperazine-1-carboxylate] | 6.92
CCCOC(=O)N1CCN(C(=O)c2ccc3c(Cl)c4c(nc3c2)CC(c2ncccc2F)CC4)C[C@@H]1C (stereo partly drawn) [A124, Propyl (2S)-4-(9-chloro-6-(3-fluoropyridin-2-yl)-5,6,7,8-tetrahydroacridine-3-carbonyl)-2-methylpiperazine-1-carboxylate] | 6.47
CCCOC(=O)N1CCN(C(=O)c2ccc3c(Cl)c4c(nc3c2)CCCC4)C(CO)C1 (stereo not drawn) [A125, Propyl 4-(9-chloro-5,6,7,8-tetrahydroacridine-3-carbonyl)-3-(hydroxymethyl)piperazine-1-carboxylate] | 6.60
CCCOC(=O)N1CCN(C(=O)c2ccc3c(Cl)c4c(nc3c2)CC(c2nccs2)CC4)CC1 (stereo not drawn) [A128, Propyl 4-(9-chloro-6-(thiazol-2-yl)-5,6,7,8-tetrahydroacridine-3-carbonyl)piperazine-1-carboxylate] | 7.00
CCCOC(=O)N1CCN(C(=O)c2ccc3c(Cl)c4c(nc3c2)CC(c2nccs2)CC4)C[C@H]1C (stereo partly drawn) [A129, Propyl (2R)-4-(9-chloro-6-(thiazol-2-yl)-5,6,7,8-tetrahydroacridine-3-carbonyl)-2-methylpiperazine-1-carboxylate] | 7.03
CCCOC(=O)N1CCN(C(=O)c2ccc3c(Cl)c4c(nc3c2)CC(c2ccc(C)cn2)CC4)CC1 (stereo not drawn) [A130, Propyl 4-(9-chloro-6-(5-methylpyridin-2-yl)-5,6,7,8-tetrahydroacridine-3-carbonyl)piperazine-1-carboxylate] | 6.89
CCCOC(=O)N1CCN(C(=O)c2ccc3c(Cl)c4c(nc3c2)CC(c2ccc(C)cn2)CC4)C[C@H]1C (stereo partly drawn) [A131, Propyl (2R)-4-(9-chloro-6-(5-methylpyridin-2-yl)-5,6,7,8-tetrahydroacridine-3-carbonyl)-2-methylpiperazine-1-carboxylate] | 6.96
CCCOC(=O)N1CCN(C(=O)c2ccc3c(Cl)c4c(nc3c2)CC(c2cc(C)ccn2)CC4)CC1 (stereo not drawn) [A132, Propyl 4-(9-chloro-6-(4-methylpyridin-2-yl)-5,6,7,8-tetrahydroacridine-3-carbonyl)piperazine-1-carboxylate] | 6.68
CCCOC(=O)N1CCN(C(=O)c2ccc3c(Cl)c4c(nc3c2)CC(c2cc(C)ccn2)CC4)C[C@H]1C (stereo partly drawn) [A133, Propyl (2R)-4-(9-chloro-6-(4-methylpyridin-2-yl)-5,6,7,8-tetrahydroacridine-3-carbonyl)-2-methylpiperazine-1-carboxylate] | 6.92
C#CCC1CCc2c(nc3cc(C(=O)N4CCN(C(=O)OCCC)C[C@@H]4C)ccc3c2Cl)C1 (stereo partly drawn) [A137, Propyl (3S)-4-(9-chloro-6-(prop-2-yn-1-yl)-5,6,7,8-tetrahydroacridine-3-carbonyl)-3-methylpiperazine-1-carboxylate] | 6.54
CCCOC(=O)N1CCN(C(=O)c2ccc3c(Cl)c4c(nc3c2)CC(c2ccnc(C#N)c2)CC4)C[C@H]1C (stereo partly drawn) [A140, Propyl (2R)-4-(9-chloro-6-(2-cyanopyridin-4-yl)-5,6,7,8-tetrahydroacridine-3-carbonyl)-2-methylpiperazine-1-carboxylate] | 6.38
C#CCC1CCc2c(nc3cc(C(=O)N4CCN(C(=O)OCCC)[C@H](C)C4)ccc3c2Cl)C1 (stereo partly drawn) [A142, Propyl (2R)-4-(9-chloro-6-(prop-2-yn-1-yl)-5,6,7,8-tetrahydroacridine-3-carbonyl)-2-methylpiperazine-1-carboxylate] | 6.38
CCCOC(=O)N1CCN(C(=O)c2ccc3c(Cl)c4c(nc3c2)CC(c2ccnc(C#N)c2)CC4)[C@@H](C)C1 (stereo partly drawn) [A143, Propyl (3S)-4-(9-chloro-6-(2-cyanopyridin-4-yl)-5,6,7,8-tetrahydroacridine-3-carbonyl)-3-methylpiperazine-1-carboxylate] | 6.34
CCCOC(=O)N1CCN(C(=O)c2ccc3c(Cl)c4c(nc3c2)CC(c2ccnc(CN)c2)CC4)CC1 (stereo not drawn) [A144, Propyl 4-(6-(2-(aminomethyl)pyridin-4-yl)-9-chloro-5,6,7,8-tetrahydroacridine-3-carbonyl)piperazine-1-carboxylate] | 6.29
CCCOC(=O)N1CCN(C(=O)c2ccc3c(Cl)c4c(nc3c2)CC(c2ccnc(C(N)=O)c2)CC4)[C@@H](C)C1 (stereo partly drawn) [A145, Propyl (3S)-4-(6-(2-carbamoylpyridin-4-yl)-9-chloro-5,6,7,8-tetrahydroacridine-3-carbonyl)-3-methylpiperazine-1-carboxylate] | 6.66
C=CCC1CCCc2c1nc1cc(C(=O)N3CCN(C(=O)OCCC)CC3)ccc1c2Cl (stereo not drawn) [A146, Propyl 4-(5-allyl-9-chloro-5,6,7,8-tetrahydroacridine-3-carbonyl)piperazine-1-carboxylate] | 6.25
C#Cc1ccc(C2CCc3c(nc4cc(C(=O)N5CCN(C(=O)OCCC)[C@H](C)C5)ccc4c3Cl)C2)nc1 (stereo partly drawn) [A149, Propyl (2R)-4-(9-chloro-6-(5-ethynylpyridin-2-yl)-5,6,7,8-tetrahydroacridine-3-carbonyl)-2-methylpiperazine-1-carboxylate] | 6.59

Continued, values first:

pIC50 | SMILES
6.85 | CCCOC(=O)N1CCN(C(=O)c2ccc3c(Cl)c4c(nc3c2)CC(c2ccnc(C)c2)CC4)C[C@@H]1C (stereo partly drawn) [A123, Propyl (2S)-4-(9-chloro-6-(2-methylpyridin-4-yl)-5,6,7,8-tetrahydroacridine-3-carbonyl)-2-methylpiperazine-1-carboxylate]
6.96 | CCCOC(=O)N1CCN(C(=O)c2ccc3c(Cl)c4c(nc3c2)CC(CCN(C)C)CC4)[C@@H](C)C1 (stereo partly drawn) [A126, Propyl (3S)-4-(9-chloro-6-(2-(dimethylamino)ethyl)-5,6,7,8-tetrahydroacridine-3-carbonyl)-3-methylpiperazine-1-carboxylate]
6.96 | CCCOC(=O)N1CCN(C(=O)c2ccc3c(Cl)c4c(nc3c2)C(C)CCC4)C[C@H]1C (stereo partly drawn) [A127, Propyl (2R)-4-(9-chloro-5-methyl-5,6,7,8-tetrahydroacridine-3-carbonyl)-2-methylpiperazine-1-carboxylate]
6.85 | CCCOC(=O)N1CCN(C(=O)c2ccc3c(Cl)c4c(nc3c2)CC(c2ccncn2)CC4)CC1 (stereo not drawn) [A134, Propyl 4-(9-chloro-6-(pyrimidin-4-yl)-5,6,7,8-tetrahydroacridine-3-carbonyl)piperazine-1-carboxylate]
7.12 | CCCOC(=O)N1CCN(C(=O)c2ccc3c(Cl)c4c(nc3c2)CC(CCN(C)C)CC4)C[C@H]1C (stereo partly drawn) [A135, Propyl (2R)-4-(9-chloro-6-(2-(dimethylamino)ethyl)-5,6,7,8-tetrahydroacridine-3-carbonyl)-2-methylpiperazine-1-carboxylate]
7.16 | CCCOC(=O)N1CCN(C(=O)c2ccc3c(Cl)c4c(nc3c2)CC(CCN(C)C)CC4)C[C@@H]1C (stereo partly drawn) [A136, Propyl (2S)-4-(9-chloro-6-(2-(dimethylamino)ethyl)-5,6,7,8-tetrahydroacridine-3-carbonyl)-2-methylpiperazine-1-carboxylate]
6.17 | CCCOC(=O)N1CCN(C(=O)c2ccc3c(Cl)c4c(nc3c2)CC(c2ccnc(C#N)c2)CC4)CC1 (stereo not drawn) [A138, Propyl 4-(9-chloro-6-(2-cyanopyridin-4-yl)-5,6,7,8-tetrahydroacridine-3-carbonyl)piperazine-1-carboxylate]
6.46 | CCCOC(=O)N1CCN(C(=O)c2ccc3c(Cl)c4c(nc3c2)CC(c2ccnc(C(N)=O)c2)CC4)CC1 (stereo not drawn) [A139, Propyl 4-(6-(2-carbamoylpyridin-4-yl)-9-chloro-5,6,7,8-tetrahydroacridine-3-carbonyl)piperazine-1-carboxylate]
6.64 | CCCOC(=O)N1CCN(C(=O)c2ccc3c(Cl)c4c(nc3c2)CC(c2ccnc(C(N)=O)c2)CC4)C[C@H]1C (stereo partly drawn) [A141, Propyl (2R)-4-(6-(2-carbamoylpyridin-4-yl)-9-chloro-5,6,7,8-tetrahydroacridine-3-carbonyl)-2-methylpiperazine-1-carboxylate]
6.52 | CCCOC(=O)N1CCN(C(=O)c2ccc3c(Cl)c4c(nc3c2)CC(c2ccnc(C#N)n2)CC4)CC1 (stereo not drawn) [A148, Propyl 4-(9-chloro-6-(2-cyanopyrimidin-4-yl)-5,6,7,8-tetrahydroacridine-3-carbonyl)piperazine-1-carboxylate]
